Data: US20070178161A1, “Use of n-acetryl-d-glucosamine in treating and controlling non-specific inflammations caused by physical or chemical factors” (priority 2003, published 2007)

Experiments:
burn models = test: Burn test; type: in vivo, Wistar rats; settings: local application of solid powder, after 3 days, 10 rats per group (control: 2)
Text: 20 Wistar rats were randomly divided into two groups, i.e., control group and test group. The rats of both two groups were made as burn models by dressing gauze with hot distilled water. The rats of the control group were not treated, while the rats of the test group were locally treated by applying a solid powder of the compound of formula (I). After 3 days, 8 rats of the test group formed scab, while only 2 rats of the control group formed scab wherein liquor puris still accumulated below the scab.

[1] = system: blunt torn thigh muscle tissue of hind limb; test: Blunt tearing tests of animals; type: in vivo, Kunming mice; settings: 1 ml, after 7 days
Procedure: 30 Kunming mice were randomly divided into two groups, i.e., 10 mice in control group and 20 mice in test group. The mice of both two groups were treated by a blunt tearing method, wherein a non-specific injury occurred in blunt torn thigh muscle tissue of hind limb of mice. […] 10 mice of control group were normally fed, while the mice of test group were administered with an aqueous solution of N-acetyl-D-glucosamine having a concentration of 5% by weight in a dosage of 1 ml, wherein 10 mice were administered by intra-peritoneal injection, another 10 mice were administered by intramuscular injection. […] The pathological changes of the mice of control group continuously developed or maintained on the original basis, wherein 4 mice suffered paralysis of the injured limb, and another 4 mice had flex and stretch dysfunction.

[2] = in vivo
Text: The toxicological test of the compound of formula (I) includes: • 1. Acute toxicity test: including tests of oral administration, intravenous injection administration, and maximum limit amount for administration; • 2. Ames test; • 3. Micronucleus test of mouse bone marrow cell; • 4. Abnormality test of mouse sperm; • 5. Aberration test of mouse testis chromosome; • 6. Chronic lethal test; • 7. Sub-chronic toxicity (feed for 90 days) test; • 8. Traditional deformity-inducing test.

[3] = system: patients with cold injury; test: Test for treatment of cold injury; type: in vivo; settings: 10 wt % aqueous solution, local, 1 ml to 10 ml per day
Procedure: 20 Patients with different levels of cold injury were divided into a test group and a control group. The patients in the test group were locally treated with a 10 wt % N-acetyl-D-glucosamine aqueous solution in a dose from 1 ml to 10 ml per day according to symptoms and individual conditions.

Proteus Mirabilis = test: Promoting wave test (bio-wave model); type: cell-based; settings: final concentration 0.5% in LB plate, 37° C., 9 hours
[4] = system: patients with surgical trauma; test: Test for treatment of surgical trauma; type: in vivo; settings: ointment 1 g/10 g in Vaseline, painted on wounds for 3 consecutive days, 8 patients
Procedure: 8 Patients with surgical trauma, and most of them were facial and forearm abrasion. An ointment with a concentration of 1 g/10 g was prepared by mixing N-acetyl-D-glucosamine and Vaseline, and was painted on wounded parts in a dose dependent upon the area of wound surface for consecutive 3 days.

[5] = system: burned voluntary patients; test: Test for treatment of burn; type: in vivo; settings: sterilized powder on wound surface for 3 consecutive days, 10 patients
Text: In a collaborate project of the bum department of Third Military Medical University, a sterilized N-acetyl-D-glucosamine powder in a dose dependant upon wound surface area was applied to the wound surface of 10 burned voluntary patients for consecutive 3 days.

[6] = 5% aqueous solution, i.p. or i.m., 20 mice in test group (control: 4 of 10)

Structure (SMILES)	rats of the test group that formed scab (burn models)	mice that suffered paralysis of the injured limb [1, 6]	mice with flex and stretch dysfunction [1, 6]	dosage at which acute toxicosis reaction had not appeared [2]	recovery from cold injury [3]	bio-wave pattern of colony (concentric rings) (Proteus Mirabilis)	movement of injured limb / mobility of test group ([1]; 5% by weight aqueous solution, intra-peritoneal or intramuscular injection, 20 mice)	healing of facial abrasion [4]	scar formation [4]	wound symptoms (edema, blood vessels, secretion) [5]	rate of cambium growth toward the center of the wound ([5]; from the 4th day)
CC(=O)N[C@H]1C(O)O[C@H](CO)[C@@H](O)[C@@H]1O.Cl (stereo partly drawn) [N-acetyl-D-glucosamine hydrochloride]	6										
CC(=O)N[C@H]1C(O)O[C@H](CO)[C@@H](O)[C@@H]1O.O=S(=O)(O)O (stereo partly drawn) [N-acetyl-D-glucosamine sulfate]		2	2								
CC(=O)N[C@H]1C(O)O[C@H](CO)[C@@H](O)[C@@H]1O (stereo partly drawn) [compound of formula (I), N-acetyl-D-glucosamine]	8	one		more than 2 g/kg	early recovery, and then inflammation and edema were eliminated	many fine waves on each ring	could free-run	rapidly healed	no scar was found on face	edema was alleviated, blood vessel shrank, and secretion was reduced	1-2 mm per day
